Test results published in BindingDB's records for doi:10.7270/Q2DN43GX (The Scripps Research Institute Molecular Screening Center, 2007).

Target: T1, Protein Rev [8-24] (Human immunodeficiency virus 1, UniProt P05866)
T1 construct: 8-24
Test: HIV-1 Rev-RRE RNA binding disruptors, dose response, biochemical, protein-RNA interaction (AID 842)

Compound: CC[n+]1c(CC=Nc2ccccc2)oc2ccccc21 [3-Ethyl-2-(2-phenylamino-vinyl)-benzooxazol-3-ium]
- IC50: 5.66 µM

Compound: Cc1[nH]n(-c2ccccc2)c(=O)c1N=Nc1ccc(N)cc1 [4-(4-aminophenyl)azo-5-methyl-2-phenyl-4H-pyrazol-3-one]
- IC50: > 79.4 µM
